The record followed here is the supplement of paper PMC10307832.

What all share (test): relative viability (nuclei count vs DMSO), 5 days (fraction); higher = more cells survive
Compound in the test “Linsitinib + Trametinib”: C[C@]1(O)C[C@@H](c2nc(-c3ccc4ccc(-c5ccccc5)nc4c3)c3c(N)nccn32)C1 [Linsitinib] + CC(=O)Nc1cccc(-n2c(=O)n(C3CC3)c(=O)c3c(Nc4ccc(I)cc4F)n(C)c(=O)c(C)c32)c1 [Trametinib] (partner 0.02 µM)
The gist of the method: (§1)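 After 5 days of treatment, lung cancer cells in 1536-well plates were fixed and stained in a single step (final 0.05% Triton X-100, 1% formaldehyde, 1 ug/ml Hoechst) and their nuclei counted on 4× images. Treatment had been applied by pin tool the day after seeding as one drug alone or as a fixed anchor-drug dose with five library-drug doses (not always all listed) in √10 steps. Relative viability is the nuclei count of treated wells divided by that of vehicle wells, and values are medians of duplicate plates.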

Compound in the test “Linsitinib + Pemetrexed”: C[C@]1(O)C[C@@H](c2nc(-c3ccc4ccc(-c5ccccc5)nc4c3)c3c(N)nccn32)C1 [Linsitinib] + Nc1nc2[nH]cc(CCc3ccc(C(=O)N[C@@H](CCC(=O)O)C(=O)O)cc3)c2c(=O)[nH]1 [Pemetrexed] (partner 0.2 µM)
The gist of the method:
as §1

Compound in the test “Ispinesib + Luminespib”: Cc1ccc(C(=O)N(CCCN)[C@@H](c2nc3cc(Cl)ccc3c(=O)n2Cc2ccccc2)C(C)C)cc1 [Ispinesib] + CCNC(=O)c1noc(-c2cc(C(C)C)c(O)cc2O)c1-c1ccc(CN2CCOCC2)cc1 [Luminespib] (partner 0.01 µM)
The gist of the method: as §1

Compound in the test “Linsitinib + Palbociclib”: C[C@]1(O)C[C@@H](c2nc(-c3ccc4ccc(-c5ccccc5)nc4c3)c3c(N)nccn32)C1 [Linsitinib] + CC(=O)c1c(C)c2cnc(Nc3ccc(N4CCNCC4)cn3)nc2n(C2CCCC2)c1=O [Palbociclib] (partner 0.5 µM)
The gist of the method: as §1

Consider LCLC-97TM1, for which the relative viability in the test with Linsitinib + Trametinib (first compound 0.01 µM) amounted to 0.215; in the test with Linsitinib + Trametinib (first compound 0.03162 µM), 0.174; in the test with Linsitinib + Trametinib (first compound 0.1 µM) it was 0.156; in the test with Linsitinib + Trametinib (first compound 0.3162 µM) it was 0.171; with Linsitinib + Trametinib (first compound 1 µM) it was 0.196; with Linsitinib + Pemetrexed (first compound 0.01 µM) it was 0.157. Besides, the relative viability came to 0.159 with Linsitinib + Pemetrexed (first compound 0.03162 µM); 0.188 in the test with Linsitinib + Pemetrexed (first compound 0.1 µM); 0.124 with Linsitinib + Pemetrexed (first compound 0.3162 µM); 0.157 with Linsitinib + Pemetrexed (first compound 1 µM); 0.781 in the test with Ispinesib + Luminespib (first compound 0.001 µM); 0.765 with Ispinesib + Luminespib (first compound 0.003162 µM). The relative viability with Ispinesib + Luminespib (first compound 0.01 µM) was determined as 0.886; with Ispinesib + Luminespib (first compound 0.03162 µM), 0.807; with Ispinesib + Luminespib (first compound 0.1 µM) it was 0.487; with Linsitinib + Palbociclib (first compound 0.01 µM) it was 0.223; with Linsitinib + Palbociclib (first compound 0.03162 µM), 0.205; with Linsitinib + Palbociclib (first compound 0.1 µM), 0.191. For the same cell line, the relative viability with Linsitinib + Palbociclib (first compound 0.3162 µM) came out at 0.195; with Linsitinib + Palbociclib (first compound 1 µM), 0.212.

As for NCI-H1915, the relative viability with Linsitinib + Trametinib (first compound 0.01 µM) stood at 0.292; in the test with Linsitinib + Trametinib (first compound 0.03162 µM), 0.332; with Linsitinib + Trametinib (first compound 0.1 µM), 0.292; in the test with Linsitinib + Trametinib (first compound 0.3162 µM), 0.308; with Linsitinib + Trametinib (first compound 1 µM), 0.268; in the test with Linsitinib + Pemetrexed (first compound 0.01 µM), 0.558. For the same cell line, the relative viability with Linsitinib + Pemetrexed (first compound 0.03162 µM) amounted to 0.291; with Linsitinib + Pemetrexed (first compound 0.1 µM), 0.495; in the test with Linsitinib + Pemetrexed (first compound 0.3162 µM) it was 0.588; with Linsitinib + Pemetrexed (first compound 1 µM), 0.486; in the test with Ispinesib + Luminespib (first compound 0.001 µM), 0.979; in the test with Ispinesib + Luminespib (first compound 0.003162 µM), 0.987. Besides, the relative viability turned out to be 1.13 in the test with Ispinesib + Luminespib (first compound 0.01 µM); 0.706 with Ispinesib + Luminespib (first compound 0.03162 µM); 0.385 with Ispinesib + Luminespib (first compound 0.1 µM); 0.514 with Linsitinib + Palbociclib (first compound 0.01 µM); 0.595 in the test with Linsitinib + Palbociclib (first compound 0.03162 µM); 0.473 with Linsitinib + Palbociclib (first compound 0.1 µM). For the same cell line, the relative viability stood at 0.489 with Linsitinib + Palbociclib (first compound 0.3162 µM) and 0.307 with Linsitinib + Palbociclib (first compound 1 µM).

For the cell line NCI-H661, the relative viability is 0.657 with Linsitinib + Trametinib (first compound 0.01 µM); 0.616 with Linsitinib + Trametinib (first compound 0.03162 µM); 0.533 in the test with Linsitinib + Trametinib (first compound 0.1 µM); 0.598 with Linsitinib + Trametinib (first compound 0.3162 µM); 0.548 in the test with Linsitinib + Trametinib (first compound 1 µM); 0.904 with Linsitinib + Pemetrexed (first compound 0.01 µM). Further, the relative viability with Linsitinib + Pemetrexed (first compound 0.03162 µM) turned out to be 0.738; in the test with Linsitinib + Pemetrexed (first compound 0.1 µM), 0.9; with Linsitinib + Pemetrexed (first compound 0.3162 µM) it was 0.935; with Linsitinib + Pemetrexed (first compound 1 µM) it was 0.895; in the test with Ispinesib + Luminespib (first compound 0.001 µM), 0.926; in the test with Ispinesib + Luminespib (first compound 0.003162 µM), 0.913. Also, the relative viability was 0.921 with Ispinesib + Luminespib (first compound 0.01 µM); 0.586 with Ispinesib + Luminespib (first compound 0.03162 µM); 0.224 in the test with Ispinesib + Luminespib (first compound 0.1 µM); 0.41 in the test with Linsitinib + Palbociclib (first compound 0.01 µM); 0.433 with Linsitinib + Palbociclib (first compound 0.03162 µM); 0.381 with Linsitinib + Palbociclib (first compound 0.1 µM). The figures for the relative viability in the test with Linsitinib + Palbociclib (first compound 0.3162 µM) and in the test with Linsitinib + Palbociclib (first compound 1 µM) were 0.379 and 0.412, respectively.

Regarding NCI-H2405, the relative viability with Linsitinib + Trametinib (first compound 0.01 µM) was determined as 0.66; in the test with Linsitinib + Trametinib (first compound 0.03162 µM) it was 0.6; in the test with Linsitinib + Trametinib (first compound 0.1 µM) it was 0.607; in the test with Linsitinib + Trametinib (first compound 0.3162 µM), 0.708; in the test with Linsitinib + Trametinib (first compound 1 µM), 0.401; with Linsitinib + Pemetrexed (first compound 0.01 µM) it was 1.08. Besides, the relative viability in the test with Linsitinib + Pemetrexed (first compound 0.03162 µM) was found to be 1.09; with Linsitinib + Pemetrexed (first compound 0.1 µM), 1.06; with Linsitinib + Pemetrexed (first compound 0.3162 µM), 0.787; with Linsitinib + Pemetrexed (first compound 1 µM), 0.762; in the test with Ispinesib + Luminespib (first compound 0.001 µM) it was 0.651; with Ispinesib + Luminespib (first compound 0.003162 µM), 0.733. Further, the relative viability worked out at 0.677 with Ispinesib + Luminespib (first compound 0.01 µM); 0.637 with Ispinesib + Luminespib (first compound 0.03162 µM); 0.52 in the test with Ispinesib + Luminespib (first compound 0.1 µM); 0.503 in the test with Linsitinib + Palbociclib (first compound 0.01 µM); 0.537 with Linsitinib + Palbociclib (first compound 0.03162 µM); 0.521 in the test with Linsitinib + Palbociclib (first compound 0.1 µM). The relative viability with Linsitinib + Palbociclib (first compound 0.3162 µM) turned out to be 0.47; in the test with Linsitinib + Palbociclib (first compound 1 µM), 0.473.

NCI-H2347: the relative viability with Linsitinib + Trametinib (first compound 0.01 µM) amounted to 0.277; with Linsitinib + Trametinib (first compound 0.03162 µM) it was 0.274; with Linsitinib + Trametinib (first compound 0.1 µM), 0.303; with Linsitinib + Trametinib (first compound 0.3162 µM), 0.287; with Linsitinib + Trametinib (first compound 1 µM), 0.418; in the test with Linsitinib + Pemetrexed (first compound 0.01 µM), 0.418. For the same cell line, the relative viability with Linsitinib + Pemetrexed (first compound 0.03162 µM) came out at 0.445; in the test with Linsitinib + Pemetrexed (first compound 0.1 µM) it was 0.409; in the test with Linsitinib + Pemetrexed (first compound 0.3162 µM), 0.399; with Linsitinib + Pemetrexed (first compound 1 µM), 0.416; in the test with Ispinesib + Luminespib (first compound 0.001 µM), 0.375; in the test with Ispinesib + Luminespib (first compound 0.003162 µM), 0.503. In addition, the relative viability with Ispinesib + Luminespib (first compound 0.01 µM) amounted to 0.624; in the test with Ispinesib + Luminespib (first compound 0.03162 µM) it was 0.359; with Ispinesib + Luminespib (first compound 0.1 µM) it was 0.469; with Linsitinib + Palbociclib (first compound 0.01 µM) it was 0.372; with Linsitinib + Palbociclib (first compound 0.03162 µM) it was 0.498; with Linsitinib + Palbociclib (first compound 0.1 µM), 0.468. For the same cell line, the values for the relative viability in the test with Linsitinib + Palbociclib (first compound 0.3162 µM) and with Linsitinib + Palbociclib (first compound 1 µM) were 0.34 and 0.399, respectively.

Regarding NCI-H1651, the relative viability with Linsitinib + Trametinib (first compound 0.01 µM) was determined as 0.827; with Linsitinib + Trametinib (first compound 0.03162 µM), 0.861; in the test with Linsitinib + Trametinib (first compound 0.1 µM), 0.884; in the test with Linsitinib + Trametinib (first compound 0.3162 µM) it was 0.777; with Linsitinib + Trametinib (first compound 1 µM), 0.824; with Linsitinib + Pemetrexed (first compound 0.01 µM), 0.345. In addition, the relative viability was 0.489 with Linsitinib + Pemetrexed (first compound 0.03162 µM); 0.56 with Linsitinib + Pemetrexed (first compound 0.1 µM); 0.608 in the test with Linsitinib + Pemetrexed (first compound 0.3162 µM); 0.596 with Linsitinib + Pemetrexed (first compound 1 µM); 0.989 with Ispinesib + Luminespib (first compound 0.001 µM); 0.88 with Ispinesib + Luminespib (first compound 0.003162 µM). Besides, the relative viability was determined as 0.859 with Ispinesib + Luminespib (first compound 0.01 µM); 1.23 with Ispinesib + Luminespib (first compound 0.03162 µM); 0.404 with Ispinesib + Luminespib (first compound 0.1 µM); 0.543 with Linsitinib + Palbociclib (first compound 0.01 µM); 0.525 in the test with Linsitinib + Palbociclib (first compound 0.03162 µM); 0.494 in the test with Linsitinib + Palbociclib (first compound 0.1 µM). For the same cell line, the relative viability with Linsitinib + Palbociclib (first compound 0.3162 µM) came out at 0.486; with Linsitinib + Palbociclib (first compound 1 µM) it was 0.489.

On to H3255, for which the relative viability with Linsitinib + Trametinib (first compound 0.03162 µM) was determined as 0.664; with Linsitinib + Trametinib (first compound 0.1 µM), 0.593; in the test with Linsitinib + Trametinib (first compound 0.3162 µM), 0.528; in the test with Linsitinib + Trametinib (first compound 1 µM), 0.579; with Linsitinib + Pemetrexed (first compound 0.01 µM), 0.457; with Linsitinib + Pemetrexed (first compound 0.03162 µM), 0.566. The relative viability in the test with Linsitinib + Pemetrexed (first compound 0.1 µM) turned out to be 0.533; in the test with Linsitinib + Pemetrexed (first compound 0.3162 µM), 0.557; with Linsitinib + Pemetrexed (first compound 1 µM), 0.521; with Ispinesib + Luminespib (first compound 0.001 µM), 0.898; with Ispinesib + Luminespib (first compound 0.003162 µM) it was 1.1; with Ispinesib + Luminespib (first compound 0.01 µM), 0.859. The relative viability was determined as 0.557 with Ispinesib + Luminespib (first compound 0.03162 µM); 0.29 in the test with Ispinesib + Luminespib (first compound 0.1 µM); 0.309 in the test with Linsitinib + Palbociclib (first compound 0.01 µM); 0.341 with Linsitinib + Palbociclib (first compound 0.03162 µM); 0.313 in the test with Linsitinib + Palbociclib (first compound 0.1 µM); 0.321 in the test with Linsitinib + Palbociclib (first compound 0.3162 µM). Moreover, the relative viability in the test with Linsitinib + Palbociclib (first compound 1 µM) came out at 0.299.
